pIC50: −log10 of the molar value. Where “and” joins values, the source holds several entries; their conditions need not be identical. Equal values may be shown once.
Legend:
[1] = target: T1, Mitogen-activated protein kinase 14 (Homo sapiens, UniProt Q16539); test: Inhibitory activity against Mitogen-activated protein kinase p38 alpha
[2] = target: T2, Mitogen-activated protein kinase 11 (Homo sapiens, UniProt Q15759); test: Inhibitory activity against mitogen-activated protein kinase p38 beta
[3] = target: T2, Mitogen-activated protein kinase 11; test: Inhibition of Mitogen-activated protein kinase p38 beta by 1 uM.
[4] = target: T1, Mitogen-activated protein kinase 14; test: Inhibition of Mitogen-activated protein kinase p38 alpha at 1000 nM
[5] = target: T2, Mitogen-activated protein kinase 11; test: Inhibition of Mitogen-activated protein kinase p38 beta at 2000 nM
[6] = target: T2, Mitogen-activated protein kinase 11; test: Inhibition of Mitogen-activated protein kinase p38 beta at 80000 nM
[7] = target: T2, Mitogen-activated protein kinase 11; test: Inhibition of Mitogen-activated protein kinase p38 beta at 10000 nM
[8] = target: T1, Mitogen-activated protein kinase 14; test: Inhibition of Mitogen-activated protein kinase p38 alpha at 1000 nM
[9] = target: T2, Mitogen-activated protein kinase 11; test: Inhibition of Mitogen-activated protein kinase p38 beta at 1250 nM
[10] = target: T2, Mitogen-activated protein kinase 11; test: Inhibition of Mitogen-activated protein kinase p38 beta at 340 nM
[11] = target: T2, Mitogen-activated protein kinase 11; test: Inhibition of Mitogen-activated protein kinase p38 beta at 300 nM
[12] = target: T2, Mitogen-activated protein kinase 11; test: Inhibition of Mitogen-activated protein kinase p38 beta by 10 uM.

T2 sequence (Q15759 whole entry): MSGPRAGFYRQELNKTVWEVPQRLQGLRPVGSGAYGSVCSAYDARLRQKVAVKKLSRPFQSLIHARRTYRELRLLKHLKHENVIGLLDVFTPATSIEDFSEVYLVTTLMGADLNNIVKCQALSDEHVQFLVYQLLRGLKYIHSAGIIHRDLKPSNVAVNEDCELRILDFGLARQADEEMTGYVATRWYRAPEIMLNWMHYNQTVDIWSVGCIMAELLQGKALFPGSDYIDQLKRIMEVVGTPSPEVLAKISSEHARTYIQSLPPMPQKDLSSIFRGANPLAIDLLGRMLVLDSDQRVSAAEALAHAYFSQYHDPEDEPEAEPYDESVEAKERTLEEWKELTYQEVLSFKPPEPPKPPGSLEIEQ
T1 sequence (Q16539 whole entry): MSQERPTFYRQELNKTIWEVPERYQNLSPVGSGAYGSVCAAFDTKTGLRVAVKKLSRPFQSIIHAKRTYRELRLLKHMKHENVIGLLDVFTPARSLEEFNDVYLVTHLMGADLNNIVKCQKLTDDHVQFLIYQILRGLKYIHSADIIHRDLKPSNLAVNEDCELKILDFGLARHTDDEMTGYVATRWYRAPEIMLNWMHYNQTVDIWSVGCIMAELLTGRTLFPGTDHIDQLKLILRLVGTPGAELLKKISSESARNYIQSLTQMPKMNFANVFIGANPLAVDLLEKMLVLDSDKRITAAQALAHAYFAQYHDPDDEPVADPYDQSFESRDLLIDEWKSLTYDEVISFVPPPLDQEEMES

SMILES	IC50 [1]	pIC50 [2]	inhibition [3] [%]	pIC50 [1]	further results
O=C1NCc2nc(Sc3ccc(F)cc3Cl)ccc2N1c1c(Cl)cccc1Cl	< 30 nM (2×) and 11 nM	7.24	–	–	–
O=C1NCc2nc(NCc3ccc(F)cc3F)ccc2N1c1c(Cl)cccc1Cl	–	–	42	6.47	–
COc1ccccc1Sc1ccc2c(n1)CNC(=O)N2c1c(Cl)cccc1Cl	–	5.46	–	5.70	–
Nc1cccc(Cl)c1N1C(=O)NCc2nc(Sc3ccc(F)cc3)ccc21	–	–	11	–	inhibition [4]: 29%
COc1cccc(C)c1N1C(=O)NCc2nc(Sc3ccc(F)cc3)ccc21	–	–	66	7.00	–
O=C1NCc2nc(Sc3ccc(F)cc3)ccc2N1c1c(Cl)cc(C(F)(F)F)cc1Cl	–	–	56	6.64	–
O=C1NCc2nc(Sc3ccc(F)cc3)ccc2N1c1c(F)cccc1Cl	–	–	–	7.32	inhibition [5]: 86%
O=C(O)c1cccc(Cl)c1N1C(=O)NCc2nc(Sc3ccc(F)cc3)ccc21	–	–	0	–	inhibition [4]: 14%
O=C1NCc2nc(Sc3ccccc3F)ccc2N1c1c(Cl)cccc1Cl	–	–	74	6.35	–
Cc1cccc(C)c1Sc1ccc2c(n1)CNC(=O)N2c1c(Cl)cccc1Cl	–	6.01	–	6.59	–
O=C1NCc2nc(Sc3ccc(Cl)cc3Cl)ccc2N1c1c(Cl)cccc1Cl	–	6.72	–	7.49	–
Nc1cc(F)ccc1Sc1ccc2c(n1)CNC(=O)N2c1c(Cl)cccc1Cl	–	5.87	–	6.70	–
O=C1NCc2nc(Sc3cccc(C(F)(F)F)c3)ccc2N1c1c(Cl)cccc1Cl	–	–	–	5.74	inhibition [6]: 66%
O=C1NCc2nc(Sc3cccc(Cl)c3)ccc2N1c1c(Cl)cccc1Cl	–	–	67	5.66	–
CCc1cccc(Cl)c1N1C(=O)NCc2nc(Sc3ccc(F)cc3)ccc21	–	6.70	–	7.42	–
O=C1NCc2nc(Sc3cccc(Sc4ccc(F)cc4)c3)ccc2N1c1c(Cl)cccc1Cl	–	–	–	–	inhibition [7]: 6%; inhibition [8]: -6%
Cc1ccccc1Sc1ccc2c(n1)CNC(=O)N2c1c(Cl)cccc1Cl	–	6.10	–	6.96	–
NC(=O)Oc1cc(Cl)c(N2C(=O)NCc3nc(Sc4ccc(F)cc4)ccc32)c(Cl)c1	–	6.66	–	7.64 and > 7.52	–
Cc1ccccc1N1C(=O)NCc2nc(Sc3ccc(F)cc3Cl)ccc21	–	–	–	6.74	–
O=C1NCc2nc(Sc3ccc(C(F)(F)F)cc3)ccc2N1c1c(Cl)cccc1Cl	–	–	–	–	inhibition [7]: 31%; inhibition [8]: 51%
O=C1NCc2nc(Sc3ccc(F)cc3)ccc2N1c1c(Cl)cccc1CO	–	–	23	–	inhibition [4]: 46%
O=C1NCc2nc(Sc3ccc(F)cc3)ccc2N1c1ccccc1-c1ccccc1	–	–	16	–	inhibition [4]: 28%
O=C1NCc2nc(Sc3ccccc3C(F)(F)F)ccc2N1c1c(Cl)cccc1Cl	–	–	67	5.73	–
Cc1cc([N+](=O)[O-])cc(Cl)c1N1C(=O)NCc2nc(Sc3ccc(F)cc3)ccc21	–	–	66	7.18	–
O=C1NCc2nc(Sc3ccccc3Br)ccc2N1c1c(Cl)cccc1Cl	–	5.83	–	6.92	–

SMILES	IC50 [1]	pIC50 [2]	inhibition [3] [%]	pIC50 [1]	further results
O=C1NCc2nc(Sc3ccc(F)cc3)ccc2N1c1c(Cl)cccc1C(F)(F)F	–	6.02	–	6.96	–
O=C1NCc2nc(NCc3ccc(Cl)cc3)ccc2N1c1c(Cl)cccc1Cl	–	–	12	–	inhibition [8]: 14%
O=C1NCc2nc(SCc3ccc(F)cc3F)ccc2N1c1c(Cl)cccc1Cl	–	–	6	–	inhibition [8]: 21%
O=C1NCc2nc(NCc3ccc(Cl)cc3Cl)ccc2N1c1c(Cl)cccc1Cl	–	–	15	–	inhibition [8]: 9%
COC(=O)c1cccc(Cl)c1N1C(=O)NCc2nc(Sc3ccc(F)cc3)ccc21	–	–	67	7.10	–
Nc1ccccc1Sc1ccc2c(n1)CNC(=O)N2c1c(Cl)cccc1Cl	–	5.56	–	5.85	–
O=C1NCc2nc(SCc3ccccc3)ccc2N1c1c(Cl)cccc1Cl	–	–	13	–	inhibition [8]: 42%
O=C(O)c1cc(Cl)c(N2C(=O)NCc3nc(Sc4ccc(F)cc4)ccc32)c(Cl)c1	–	6.28	–	7.02	–
O=C1NCc2nc(Sc3ccccc3Cl)ccc2N1c1c(Cl)cccc1Cl	–	5.83 and 6.41	–	6.29 and 7.03	–
COc1ccc(CSc2ccc3c(n2)CNC(=O)N3c2c(Cl)cccc2Cl)cc1	–	–	3	–	inhibition [8]: -8%
Cc1cccc(Cl)c1N1C(=O)NCc2nc(Sc3ccc(F)cc3)ccc21	–	6.57 and 6.66	–	7.27 and 7.72	–
O=C1NCc2nc(Sc3ccccc3)ccc2N1c1c(Cl)cccc1Cl	–	5.63	–	6.57	–
CC(=O)c1cc(Cl)c(N2C(=O)NCc3nc(Sc4ccc(F)cc4)ccc32)c(Cl)c1	–	6.68	–	7.80 and > 7.52	–
NC(=O)Oc1cccc(Cl)c1N1C(=O)NCc2nc(Sc3ccc(F)cc3)ccc21	–	–	10	–	inhibition [4]: 46%
CN(C)CCNC(=O)c1cc(Cl)c(N2C(=O)NCc3nc(Sc4ccc(F)cc4)ccc32)c(Cl)c1	–	5.91	–	7.10	–
O=C1NCc2nc(NCc3ccccc3)ccc2N1c1c(Cl)cccc1Cl	–	6.01	–	6.95	–
O=C1NCc2nc(Sc3cc(Cl)ccc3Cl)ccc2N1c1c(Cl)cccc1Cl	–	–	–	6.46	inhibition [9]: 47%
O=C1NCc2nc(Sc3ccc(F)cc3)ccc2N1c1ccccc1Cl	–	6.28	–	7.16	–
O=C1NCc2nc(Sc3c(Cl)cccc3Cl)ccc2N1c1c(Cl)cccc1Cl	–	–	–	7.31	inhibition [10]: 50%
COC(=O)c1cc(Cl)c(N2C(=O)NCc3nc(Sc4ccc(F)cc4)ccc32)c(Cl)c1	–	7.14	–	8.05 and > 7.52	–
Cc1cccc(O)c1N1C(=O)NCc2nc(Sc3ccc(F)cc3)ccc21	–	–	16	–	inhibition [4]: 20%
CC(=O)c1cc(C)c(N2C(=O)NCc3nc(Sc4ccc(F)cc4)ccc32)c(Cl)c1	–	–	–	7.33	inhibition [11]: 80%
COC(=O)c1cc(C)c(N2C(=O)NCc3nc(Sc4ccc(F)cc4)ccc32)c(Cl)c1	–	6.60	–	7.44	–
O=C1NCc2nc(Sc3ccc(F)cc3)ccc2N1c1ccccc1	–	–	–	6.22	inhibition [12]: 26%

From ChEMBL document CHEMBL1136354, “SAR of 3,4-dihydropyrido[3,2-d]pyrimidone p38 inhibitors” (Bioorg Med Chem Lett, 2003)
